Assay type in all cases: in vivo, human
For test [1], the system named is cystic fibrosis. Nature of the test: Inhaled gas / nebulized treatment of patients with cystic fibrosis (Examples IV, IX, XI, XII).
The test system of test [2] is ARDS. Description: Inhaled gas treatment of patients with ARDS (Examples II, VI, VII, VIII).
In test [3] the test system is asthma. Nature of the test: Inhaled gas treatment of patients with asthma (Examples III, X). As to conditions: Example III; child, status asthmaticus, intubated; 20 ppm in nitrogen.

SMILES strings stand for the structures.

Take `[Na+].[Na+].[O-][N+]([O-])=NO` [Angeli's salt, reference compound]: the sputum production result in test [1] (Example XI, 100 mM in 3 cc normal saline nebulized Q 6 hours, over two days, after HNO) is “decreases in sputum production”.
As for `CCON=O` [Ethylnitrite], the PaO2 in test [2] (Example VII, ENO in nitrogen started again (arrow D), from 43) was 49 mm Hg; in test [2] (Example VII, ENO stopped (arrow C), from 46), 43 mm Hg; in test [2] (Example VII, over the following 12 hours on ENO, progressively less responsive), 37 millimeters of mercury; in test [2] (Example VII, person, viral pneumonia progressed to ARDS, initial ENO 40 ppm in nitrogen (arrow A), from 39 on 100% oxygen) it was 48 mm Hg; in test [2] (Example VIII, person, ARDS, inhaled 10 ppm in nitrogen for three days, from 50), 40 mm Hg. Further, the blood pressure entry in test [2] (Example VII, hemodynamically unstable patient, ENO 40 ppm in nitrogen) is “stabilized”. Further, in test [1] (human, in vivo), the “GSNO levels in the airway lining fluid” value is given as “increase”. Moreover, the blood gases result in test [1] (human, in vivo) is given as “improved”. In addition, the pulmonary hemorrhage result in test [1] (human, in vivo) is reported as “the hemorrhage stops”. Moreover, the state of health entry in test [1] (human, in vivo) is “reverts to their normal state of health”.
As to `CSN=O` [Methylthionitrite], in test [2] (Example VI, person, AML, ARDS, intubated, 20 parts per million oxygen, from PO2 40 on 100% oxygen), the PaO2 was 70 mm Hg.
In test [2] (Example VII, nebulized N-acetylcysteine added to ENO (arrow B), from 37), `CC(=O)N[C@@H](CS)C(=O)O` [N-acetylcysteine, reference compound] had a PaO2 of 46 mm Hg.
For the compound `COS(=O)N=O` (centres unmarked) [methylnitrososulfinate], in test [3], the airway pressures entry is “airway pressures decrease”.

Values taken from patent US7045152B2, “Treating pulmonary disorders with gaseous agent causing repletion of GSNO” (Duke University, priority 1999, dated 2006).
